# From patent US20180155757A1, “IDENTIFICATION OF BACTERIA THAT ARE RESISTANT TO CARBAPENEMS BY MEMBRANE IMPERVIOUSNESS” (BIOMÉRIEUX, priority 2015, published 2018)
# Like-named read-outs stand apart in the source and are kept apart here.
# Assays:
# Assay in all cases: Etest MIC of indicator carbapenems on MH II agar without/with PMBN
# Assay type in all cases: cell-based
# [1] = system: K. pneumoniae 1204034
# Procedure: (§1) The determinations of antibiotic MIC were carried out on solid culture media with the Etest® method. To do this, Etest® strips (bioMérieux, France) were used: • Etest® Imipenem IM 32, and • Etest® Ertapenem ETP 32, and also solid culture media, differing from one another by virtue of their non-inhibitory concentrations of PMBN.
# (§2) These solid culture media are prepared in Petri dishes (0=145 mm; V=50 ml) on a base of MH II Agar (Becton Dickinson®, United States), more or less supplemented with PMBN. The PMBN concentrations range from 0 up to concentrations equivalent to one fifth of the MIC of PMBN (⅕ MICPMBN).
# (§3) Using a swab and the Retro C80™ rota-plater (bioMérieux, France), the culture media were inoculated with the bacteria, originating from an inoculum of 0.5 McFarland, prepared in 0.85% NaCl solution from colonies subcultured the day before on MH II agar.
# (§4) The various Etest® strips are then deposited on the surface of the culture media. After 16 to 20 hours of incubation at 35° C., the MICS were read.
# (§5) To do this, imipenem and ertapenem were used as indicator carbapenems. Non-inhibitory concentrations of PMBN, equivalent to concentrations of one tenth ( 1/10), one eighth (⅛) and one fifth (⅕) of the MIC of PMBN, were applied.
# (§6) In the light of the MICPMBN values previously identified, very predominantly much higher than 300 μg/ml, the following standard concentrations were retained and applied to the bacterial strains to be tested: 50, 100, 150, 200 and 300 μg/ml.
# (§7) By way of indicator carbapenems according to the invention, in addition to imipenem (IM) and ertapenem (ETP), meropenem (MP) was also tested. Like the other two antibiotics, meropenem was used in the form of Etest® strips (Etest® Meropenem MP 32 from the company bioMérieux, France).
# (§8) The methods used to prepare the new culture media and to carry out the antibiotic-sensitivity tests are identical to those described above.
# [2] = system: E. cloacae 9402034
# Procedure: as §1, §2, §3, §4, §5, §6, §7, §8
# [3] = system: K. pneumoniae 1002015
# Procedure: as §1, §2, §3, §4, §5, §6, §7, §8
# [4] = system: E. aerogenes 9306071
# Procedure: as §1, §2, §3, §4, §5, §6, §7, §8
# [5] = system: E. aerogenes 1204048; conditions: in µg/mL
# Procedure: as §1, §2, §3, §4, §5, §6, §7, §8
# [6] = system: E. aerogenes 9203076
# Procedure: as §1, §2, §3, §4, §5, §6, §7, §8
smiles,measurement,setting,value
"C[C@@H](O)[C@H]1C(=O)N2C(C(=O)O)=C(S[C@@H]3CN[C@H](C(=O)Nc4cccc(C(=O)O)c4)C3)[C@H](C)[C@H]12 [ETP, ertapenem]",MIC,"[1]; K. pneumoniae 1204034, [PMBN] MIC/8",4 µg/mL
same,MIC,"[1]; K. pneumoniae 1204034, [PMBN] MIC/10",8 µg/mL
same,MIC,"[1]; Klebsiella pneumoniae, 1204034, K. pneumoniae 1204034 (porin−), [PMBN] 0, Table 4, read-out: MIC",> 32 µg/mL
same,MIC,"[1]; Klebsiella pneumoniae, 1204034, K. pneumoniae 1204034 (porin−), [PMBN] 150 μg/ml, Table 4, read-out: MIC",1.5 µg/mL
same,MIC,"[1]; Klebsiella pneumoniae, 1204034, K. pneumoniae 1204034 (porin−), [PMBN] 200 μg/ml, Table 4, read-out: MIC",1 µg/mL
same,MIC,"[2]; E. cloacae 9402034 (membrane impermeability), [PMBN] 0, Table 4a",> 32 µg/mL
same,MIC,"[2]; E. cloacae 9402034 (membrane impermeability), [PMBN] 100, Table 4a",> 32 µg/mL
same,MIC,"[2]; E. cloacae 9402034 (membrane impermeability), [PMBN] 200, Table 4a",12 µg/mL
same,MIC,"[2]; E. cloacae 9402034 (membrane impermeability), [PMBN] 300, Table 4a",12 µg/mL
same,MIC,"[2]; E. cloacae 9402034, [PMBN] 0, Table 3",64 µg/mL
same,MIC,"[2]; E. cloacae 9402034, [PMBN] MIC/5",16 µg/mL
same,MIC,"[2]; E. cloacae 9402034, [PMBN] MIC/8",16 µg/mL
same,MIC,"[2]; E. cloacae 9402034, [PMBN] MIC/10",16 µg/mL
same,MIC,"[3]; K. pneumoniae 1002015, [PMBN] 0, Table 3",32 µg/mL
same,MIC,"[3]; K. pneumoniae 1002015, [PMBN] MIC/5",1 µg/mL
same,MIC,"[3]; K. pneumoniae 1002015, [PMBN] MIC/8",2 µg/mL
same,MIC,"[3]; K. pneumoniae 1002015, [PMBN] MIC/10",4 µg/mL
same,MIC,"[3]; Klebsiella pneumoniae, 1002015, K. pneumoniae 1002015 (porin−), [PMBN] 0, Table 4, read-out: MIC",4 µg/mL
same,MIC,"[3]; Klebsiella pneumoniae, 1002015, K. pneumoniae 1002015 (porin−), [PMBN] 150 μg/ml, Table 4, read-out: MIC",0.5 µg/mL
same,MIC,"[3]; Klebsiella pneumoniae, 1002015, K. pneumoniae 1002015 (porin−), [PMBN] 200 μg/ml, Table 4, read-out: MIC",0.38 µg/mL
same,MIC,"[4]; E. aerogenes 9306071 (membrane impermeability), [PMBN] 0, Table 4a",> 32 µg/mL
same,MIC,"[4]; E. aerogenes 9306071 (membrane impermeability), [PMBN] 100, Table 4a",12 µg/mL
same,MIC,"[4]; E. aerogenes 9306071 (membrane impermeability), [PMBN] 200, Table 4a",8 µg/mL
same,MIC,"[4]; E. aerogenes 9306071 (membrane impermeability), [PMBN] 300, Table 4a",4 µg/mL
same,MIC,"[4]; E. aerogenes 9306071, [PMBN] 0, Table 3",32 µg/mL
same,MIC,"[4]; E. aerogenes 9306071, [PMBN] MIC/5",4 µg/mL
same,MIC,"[4]; E. aerogenes 9306071, [PMBN] MIC/8",4 µg/mL
same,MIC,"[4]; E. aerogenes 9306071, [PMBN] MIC/10",4 µg/mL
same,MIC,"[5]; E. aerogenes 1204048 (membrane impermeability), [PMBN] 0, Table 4a",>32
same,MIC,"[5]; E. aerogenes 1204048 (membrane impermeability), [PMBN] 100, Table 4a",16
same,MIC,"[5]; E. aerogenes 1204048 (membrane impermeability), [PMBN] 200, Table 4a",16
same,MIC,"[5]; E. aerogenes 1204048 (membrane impermeability), [PMBN] 300, Table 4a",8
same,MIC,"[5]; E. aerogenes 1204048, [PMBN] 0, Table 3",32
same,MIC,"[5]; E. aerogenes 1204048, [PMBN] MIC/5",2
same,MIC,"[5]; E. aerogenes 1204048, [PMBN] MIC/8",2
same,MIC,"[5]; E. aerogenes 1204048, [PMBN] MIC/10",4
same,MIC,"[6]; E. aerogenes 9203076 (membrane impermeability), [PMBN] 0, Table 4a, in µg/mL",>32
same,MIC,"[6]; E. aerogenes 9203076 (membrane impermeability), [PMBN] 100, Table 4a, in µg/mL",16
same,MIC,"[6]; E. aerogenes 9203076 (membrane impermeability), [PMBN] 200, Table 4a, in µg/mL",12
same,MIC,"[6]; E. aerogenes 9203076 (membrane impermeability), [PMBN] 300, Table 4a, in µg/mL",4
same,MIC,"[6]; E. aerogenes 9203076, [PMBN] 0, Table 3, in µg/mL",32
same,MIC,"[6]; E. aerogenes 9203076, [PMBN] MIC/5, in µg/mL",2
same,MIC,"[6]; E. aerogenes 9203076, [PMBN] MIC/8, in µg/mL",4
same,MIC,"[6]; E. aerogenes 9203076, [PMBN] MIC/10, in µg/mL",4
same,MIC,"[6]; Klebsiella aerogenes, 9203076, E. aerogenes 9203076 (porin−), [PMBN] 0, Table 4, read-out: MIC",24 µg/mL
same,MIC,"[6]; Klebsiella aerogenes, 9203076, E. aerogenes 9203076 (porin−), [PMBN] 150 μg/ml, Table 4, read-out: MIC",3 µg/mL
same,MIC,"[6]; Klebsiella aerogenes, 9203076, E. aerogenes 9203076 (porin−), [PMBN] 200 μg/ml, Table 4, read-out: MIC",1.5 µg/mL
